What was measured:
[1] = tested on: Candid-1 JUNV; format: cell-based, Junin virus; settings: VeroE6 cells; 1, 10, 25, 50 μM Compound I
[2] = tested on: Mouse Pancreatic Acinar Cells (PACs); experiment: TLCS-induced necrosis in mouse pancreatic acinar cells (propidium iodide uptake); format: cell-based
Method: (§1) Mouse Pancreatic Acinar Cells (PACs) were extracted and incubated with either a carrier (control) or with natural bile acid TLCS (taurolithocholic acid 3-sulfate) in the absence or presence of GSK-7975A. Cells were contacted with propidium iodide to assay for cell necrosis. TLCS treatment to individual cells in vitro mimics the effect of a gall stone or other blockage in pancreatic secretion in vivo.
Mouse PACs were treated with either DMSO, DMSO plus 500 μM TLCS, or DMSO plus 500 μM TLCS plus 1 μM of the CRAC inhibitor Compound I. Cell necrosis was measured as % PI uptake. The CRAC inhibitor Compound I inhibits TLCS-induced necrosis in mouse PACs.

[3] = tested on: murine T cells; experiment: Store-operated Ca2+ entry in murine T cells under Th1-, Th2-, Th17-polarizing conditions; format: cell-based; settings: 1 μM Compound I, Th17 versus naive
Method: Naive and stimulated murine T cells cultured under Th1-, Th2-, and Th17-polarizing conditions are treated with either DMSO, DMSO plus 500 μM TLCS, or DMSO plus 500 μM TLCS plus 1 μM of the CRAC inhibitor Compound I. Store-operated Ca^2+ entry (SOCE) is quantified in each treatment.

[4] = tested on: Th17 cells; experiment: Cytokine production by Th1, Th2 and Th17 cells; format: cell-based, murine; settings: compared with IFN-γ and IL-4 production by Th1 and Th2 cells
[5] = tested on: caerulein-induced acute pancreatitis; experiment: Serum amylase and serum lipase in mouse caerulein model of acute pancreatitis; format: in vivo; settings: doses up to 20 mg/kg
Method: Mice were either untreated (Normal), treated with CCK only (vehicle), or treated with CCK in combination with CsA or a CRAC inhibitor at the indicated dose. Serum amylase activity (FIG. 9A) and Serum Lipase activity (FIG. 9B) (IU/L) were measured.

[6] = tested on: T cells in bulk human PBMCs; experiment: Cytokine release from anti-CD3/anti-CD28 stimulated human PBMCs (Luminex); format: cell-based; settings: plate-bound anti-CD3/anti-CD28, 10% serum, 48 hrs
Method: Compound I was tested for its inhibitory effect on a number of cytokines. Cytokines INF-gamma, IL-4, and IL-4 receptors of which are expressed on Acinar cells, cytokines IL-lbeta, IL-6, IL-10 and TNF-alpha, expressed in Acinar cells, and IL-2 and IL-7, cytokines important in T-cell function, were tested for an inhibitory effect of the CRAC inhibitor Compound I. T cells in bulk human PBMCs were stimulated with plate-bound anti-CD3/anti-CD28 in buffer +10% serum for 48 hrs. Released cytokines were measured by Luminex at Millipore.

[7] = tested on: caerulein-induced pathology in the mouse pancreas; experiment: Mouse caerulein model of acute pancreatitis, prophylactic i.p. dosing, pancreas pathology; format: in vivo; settings: C57B6 mice
Method: Mice were treated with a CRAC inhibitor or a vehicle prophylactically, and then challenged with CCK to trigger acute pancreatitis.

[8] = tested on: Mouse PACs; experiment: CPA-induced store-operated Ca2+ entry (calcium reuptake) in mouse PACs; format: cell-based; settings: CPA-treated mouse PACs, excess Calcium given 15 minutes after release
Method: Mouse PACs were isolated and assayed for the effect of CRAC inhibitors on calcium re-uptake into the ER. Cells were treated with cyclopiazonic acid (CPA) alone (FIG. 4A) or in combination with the CRAC inhibitor Compound I (FIG. 4B) to activate CRAC channels to release Ca^2+. At 15 minutes following Calcium release, cells were provided with an excess of Calcium and monitored for Calcium uptake into the ER.

[9] = tested on: Mouse Acinar cells; experiment: TLCS-induced amylase release in mouse acinar cells; format: cell-based; settings: TLCS-treated mouse acinar cells, compared with EGTA
Method: Amylase release from PACs has an ER calcium-dependent and a CRAC/cytosolic calcium-dependent component. The calcium dependent component is blocked by introduction of the divalent cation chelating agent EGTA. Mouse Acinar cells were treated with TLCS and either vehicle, EGTA, or a CRAC inhibitor such as Compound I, GSK-7975A or Compound II and monitored for Amylase release. It is observed that CRAC inhibitors mimicked EGTA in their effect on Amylase release.

[10] = tested on: Mouse PACs; experiment: CCK-induced Ca2+ entry in mouse PACs; format: cell-based; settings: CCK 10 nM, then 1.8 mM Calcium; pretreatment with inhibitor
Method: Mouse PACs were monitored for their Calcium uptake upon treatment with CCK at 10 nM. Cells were treated with CCK, and then provided with 1.8 mM Calcium and Calcium reuptake was monitored. […] Compound I pretreatment reduced Calcium re-uptake to near 0% of the control. GSK-7975A reduced calcium reuptake to about 30% of the control.

[11] = Compound levels in the pancreas after i.p. injection; format: in vivo, mouse; settings: as a function of dose
[12] = tested on: caerulein-induced pathology in the pancreas; experiment: Therapeutic/prophylactic mouse caerulein model, histopathology scores; format: in vivo
Method: Seven hourly i.p. injections of caerulein were given to induce pancreatitis, with animals sacrificed 8 hr after the 1st injection. Compound I was administered i.p. either 30 min before the 1st caerulein injection (prophylactic), or after the 3rd injection (therapeutic). CsA was administered p.o. on the same schedule as Compound I. The results are depicted in FIG. 10. Histopathology scores were measured in light of observation of Acinar cell degeneration, coagulation necrosis, and inflammation and edema measurements. Compound I produced a significant 35% reduction in caerulein-induced pathology in the pancreas when administered after the 3rd caerulein injection, consistent with efficacy in a therapeutic mode.

[13] = tested on: Mouse PACs; experiment: TLCS-induced Ca2+ entry in mouse PACs (cytosolic calcium, F345/F380); format: cell-based; settings: 500 μM TLCS; Compound I at 1 or 3 μM
Method: Mouse PACs were treated with 500 μM TLCS and either 0, 1μM or 3 μM of the CRAC inhibitor Compound I. Cytosolic Calcium levels (measured as F345/ F380 ratios) were measured for each treatment. TLCS releases Ca^2+ from intracellular stores (not shown), initiating SOCE. […] The results are depicted in FIG. 11.

[14] = target: Orai2/STIM1 channels (Homo sapiens, UniProt Q96SN7); experiment: CRAC channel inhibition, Orai2/STIM1; format: cell-based
Method: (§2) Compound I and GSK-7975A were assayed for their inhibitory effect on CRAC channels. Channels comprising Orai1/STIM1 and Orai2/STIM1 were assayed.

[15] = target: Orai1/STIM1 channels (Homo sapiens, UniProt Q96D31); experiment: CRAC channel inhibition, Orai1/STIM1; format: cell-based; settings: for IC50: Orai1/STIM1 channels
Method: as §2

[16] = tested on: Mouse PACs; experiment: Rate of store-operated Calcium entry in mouse PACs, dose dependence; format: cell-based; set-up: block of reuptake: dose or concentration left out as unconfirmed; settings: for activity at 0.7 µM: Mus musculus, 700 nM of inhibitor, read-out: rate of store-operated Calcium entry, % of control levels
Method: Mouse PACs were treated with CRAC inhibitors Compound I (FIG. 5A) or GSK-7975A (FIG. 5B) and monitored for their rate of Calcium uptake. […] Compound I blocks 100% of reuptake […].

[17] = tested on: Mouse acute pancreatitis models; experiment: Mouse acute pancreatitis models (Caerulein, TLCS, FAEE), pancreas histopathology; format: in vivo; settings: TLCS or FAEE model, doses giving tissue levels 10× or 40× the IC50, more pronounced at 40×
From the text: Mouse acute pancreatitis models were used to evaluate the effect of a CRAC inhibitor on pancreas histopathological progression. Caerulein is used to hyper-stimulate CCK receptors in the normal Calcium signaling pathway in the mouse pancreas. TLCS is used to induce acute pancreatitis through simulation of an excess of bile acid, as would be experienced in a gallstone induced acute pancreatitis. Fatty acid ethyl esters (FAEE) are used to simulate alcohol-induced acute pancreatitis. Mice were treated with the acute pancreatitis agent (Caerulin, FIG. 2A, TLCS, FIG. 2B or FAEE, FIG. 2C) alone or with the CRAC inhibitor GSK-7975A at either 10× or 40× the IC50 of the CRAC inhibitor.

[18] = tested on: Human PACs; experiment: TLCS-induced necrosis in human pancreatic acinar cells (propidium iodide); format: cell-based; settings: TLCS plus 10 μM GSK-7975A, TLCS alone about 45%, no TLCS about 23%
Method: as §1, with “Human PACs” for “Mouse Pancreatic Acinar Cells (PACs)”, “TLCS” for “TLCS (taurolithocholic acid 3-sulfate)”

Chain of Orai1/STIM1 channels (Q96D31 whole entry): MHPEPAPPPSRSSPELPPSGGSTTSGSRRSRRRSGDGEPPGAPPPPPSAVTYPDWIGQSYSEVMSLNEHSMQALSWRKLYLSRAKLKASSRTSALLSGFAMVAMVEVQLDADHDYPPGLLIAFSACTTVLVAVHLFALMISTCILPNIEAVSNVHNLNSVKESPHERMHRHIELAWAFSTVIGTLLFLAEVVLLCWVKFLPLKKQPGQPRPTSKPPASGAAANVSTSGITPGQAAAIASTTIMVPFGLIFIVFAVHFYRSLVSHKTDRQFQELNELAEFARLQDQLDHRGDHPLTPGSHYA
Chain of Orai1/STIM1 channels (Q13586 23-685 partner): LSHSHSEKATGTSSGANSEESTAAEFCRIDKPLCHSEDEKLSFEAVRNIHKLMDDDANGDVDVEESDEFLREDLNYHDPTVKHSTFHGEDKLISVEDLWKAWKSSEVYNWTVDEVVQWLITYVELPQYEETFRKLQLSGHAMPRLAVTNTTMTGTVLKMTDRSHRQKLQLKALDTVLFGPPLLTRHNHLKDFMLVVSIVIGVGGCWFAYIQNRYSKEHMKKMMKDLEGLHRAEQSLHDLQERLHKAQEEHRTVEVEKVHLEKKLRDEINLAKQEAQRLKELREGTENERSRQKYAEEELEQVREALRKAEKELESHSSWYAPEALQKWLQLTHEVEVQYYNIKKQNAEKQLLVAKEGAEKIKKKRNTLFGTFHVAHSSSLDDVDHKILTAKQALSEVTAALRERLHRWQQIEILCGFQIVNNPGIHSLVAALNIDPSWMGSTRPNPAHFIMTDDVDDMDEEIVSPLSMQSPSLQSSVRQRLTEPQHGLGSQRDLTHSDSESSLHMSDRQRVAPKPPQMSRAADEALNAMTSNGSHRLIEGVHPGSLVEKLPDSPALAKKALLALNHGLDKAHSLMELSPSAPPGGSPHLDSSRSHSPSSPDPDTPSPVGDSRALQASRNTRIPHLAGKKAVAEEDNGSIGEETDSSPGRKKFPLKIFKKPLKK
Chain of Orai2/STIM1 channels (Q96SN7 whole entry): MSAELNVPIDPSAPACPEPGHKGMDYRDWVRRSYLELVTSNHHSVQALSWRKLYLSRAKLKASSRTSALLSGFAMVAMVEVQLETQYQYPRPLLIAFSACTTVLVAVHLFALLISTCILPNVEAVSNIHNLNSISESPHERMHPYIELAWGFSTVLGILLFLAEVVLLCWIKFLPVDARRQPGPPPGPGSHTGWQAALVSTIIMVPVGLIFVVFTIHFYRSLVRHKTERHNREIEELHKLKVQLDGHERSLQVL
Chain of Orai2/STIM1 channels (Q13586 23-685 partner): as the sequence (Q13586 23-685 partner) above

Which “JUNV virus production (foci)” value [1] does the source give for `Cc1cccc(F)c1C(=O)Nc1cnc(-c2cc3c(cc2Cl)OC(F)(F)O3)cn1` [Compound I, N-(5-(6-chloro-2,2-difluorobenzo[d][1,3]dioxol-5-yl)pyrazin-2-yl)-2-fluoro-6-methylbenzamide] here?
The value was “statistically significant, dose-dependent reduction”.

What about the “TLCS-induced necrosis (% PI uptake)” value ([2]; 500 μM TLCS plus 1 μM Compound I) of the same compound?
The value was “inhibits”.

And the “Store-operated Ca2+ entry (SOCE)” value [3]?
The value was “blocks SOCE stronger in differentiated Th17 cells”.

What about the “IL-17A production by Th17 cells” value [4] of the same compound?
The value was “more severely affected”.

What about the “caerulein-induced serum amylase activity” value [5] of the same compound?
Its value is “significant and dose-dependent reductions”.

And the “caerulein-induced serum lipase activity” value [5]?
The value was “significant and dose-dependent reductions”.

And the “release of multiple cytokines” value [6]?
Its value is “potently inhibits”.

What about the “caerulein-induced pathology in the mouse pancreas” value [7] of the same compound?
The value was “significant and dose-dependent reductions”.

And the “reuptake of Calcium” value [8]?
The value was “do not demonstrate reuptake of Calcium”.

What about the “effect on Amylase release” value [9] of the same compound?
Its value is “mimicked EGTA”.

And the “Calcium re-uptake, % of the control” value [10]?
The value was about 0%.

And the “Compound I levels in the pancreas” value [11]?
The value was “dose-proportional increase”.

And the “reduction in caerulein-induced pathology in the pancreas” value ([12]; prophylactic: i.p. 30 min before the 1st caerulein injection)?
Its value is 26%.

And the “reduction in caerulein-induced pathology in the pancreas” value ([12]; therapeutic: i.p. after the 3rd caerulein injection)?
The value was 35%.

What about the “TLCS-induced Ca2+ entry” value [13] of the same compound?
Its value is “completely blocked”.

What about the IC50 [14] of the same compound?
The IC50 was 895 nM.

What about the “potency on Orai1-type CRAC channels compared to GSK-7975A” value ([15]; Compound I versus GSK-7975A) of the same compound?
The value was “about 4 fold”.

And the IC50 [15]?
The IC50 was 119 nM.

And the block of reuptake [16]?
The block of reuptake was 100%.

And the activity at 0.7 µM [16]?
Its activity at 0.7 µM is 50%.

With `Cc1nc2cc(C)c(-c3cnc(NC(=O)c4c(F)ccc(F)c4F)s3)cc2o1` [Compound II, N-(5-(2,5-dimethylbenzo[d]oxazol-6-yl)thiazol-2-yl)-2,3,6-trifluorobenzamide] as the compound, how does the “effect on Amylase release” value [9] read?
The value was “mimicked EGTA”.

With `O=C(Nc1ccn(Cc2ccc(O)cc2C(F)(F)F)n1)c1c(F)cccc1F` [GSK-7975A, 2,6-Difluoro-N-(1-(4-hydroxy-2-(trifluoromethyl)benzyl)-1H-pyrazol-3-yl)benzamide, reference compound] as the compound, how does the percent necrosis ([2]; TLCS plus 10 μM GSK-7975A, TLCS alone about 45%, no TLCS about 10%) read?
The percent necrosis was “about 23%”.

What about the total histopathology score [17] of the same compound?
The total histopathology score was “substantially reduces”.

What about the percent necrosis [18] of the same compound?
Its percent necrosis is “about 30%”.

What about the “effect on Amylase release” value [9] of the same compound?
Its value is “mimicked EGTA”.

What about the “Calcium re-uptake, % of the control” value [10] of the same compound?
Its value is “about 30%”.

And the IC50 [14]?
The IC50 was 1450 nM.

What about the IC50 [15] of the same compound?
The IC50 was 398 nM.

What about the activity at 0.7 µM [16] of the same compound?
Its activity at 0.7 µM is 50%.
